{
  "source": "patent US20110195910A1",
  "about": "“USE OF TOCOTRIENOL COMPOSITION FOR THE PREVENTION OF CANCER” (DAVOS LIFE SCIENCE PTE. LTD., priority 2008, published 2011)",
  "key": {"[1]": {"tested_on": "MDA-MB-231 cells", "assay": "Matrigel-invasion assay, MDA-MB-231 cells", "type": "cell-based, human", "settings": "MDA-MB-231, 24 hrs", "procedure": "1.1.4 Matrigel-invasion assay—Matrigel-invasion assay was performed according to a previously published method with modifications. Briefly, cells were pre-incubated in a serum-free RPMI 1640 medium with or without γ-T3 isomers for 24 hrs. Cells (2.5×10^5) resuspended in 500 μl of serum-free RPMI 1640 containing 0.1% bovine serum albumin (BSA) were then added to the upper chamber of a 8 μm pore size insert (Millipore, Bedford, Mass.) manually coated with Matrigel (0.5 mg/ml) (BD Bioscience, Bedford, Mass.). Five hundred μl of invasion buffer containing fibronectin (10 μg/ml) and RPMI 1640 supplemented with 10% FCS were added in the lower chamber as a chemo-attractant. Cells were incubated at 37° C. for 24 hrs in 5% CO2 humidified conditions. At the end of incubation period, inserts were stained with Diff-Quick staining solution (Fischer Scientific). Non-invaded cells on the inside of the insert were scraped off with a cotton swab. Cell invasions were then examined by a phase-contrast microscope. The invaded cells were extracted using extraction buffer (Millipore, Bedford, Mass.) and the cell number was estimated based on absorbance at 595 nm.\n3.1.7 Flow cytometry was carried out as described above under item 1.1.3. Matrigel-invasion assay was carried out as described above under item 1.1.4. Western blotting was carried out as described above under item 1.1.5."}, "[2]": {"assay": "Pharmacokinetics of γ-tocotrienol in mice (serum, HPLC)", "type": "in vivo, C57BL/6 black mice", "settings": "1 mg γ-T3 i.p.", "procedure": "4.1.4 Pharmacokinetics of γ-Tocotrienol in Mice—C57BL/6 black mice were purchased from The Jackson Laboratory (Bar Harbor, Me., USA). Forty 5-week old mice were given a single dose i.p injection containing 1 mg of γ-T3. Five mice were sacrificed at different time points (10 min, 30 min, 1 h, 3 h, 6 h, 24 h, 48 h and 72 h). Blood samples were collected through cardiac bleeding. To isolate the serum, blood samples were incubated at room temperature for 30 min, followed by centrifugation at 4400 rpm, 4° C. for 30 min. γ-T3 concentration in serum was analyzed using HPLC method below.\n4.1.6 γ-Tocotrienol Extraction from Serums, Tumors and Organs—Serums were thawed and sonicated in an ultrasonic bath (Lab Companion, Vernon Hills, Ill., USA) for 5 min, followed by vortexing for 10 s. 100 μl of serum was transferred into IWAKI Pyrex glass tube (Jawa Tengah, Indonesia) containing 900 μl of water. For the tumors and organs preparation, the tissues were homogenized in 1 ml of water using borosilicate glass homogenizer (Fisher scientific, Pittsburgh, Pa.), followed by transferring to Pyrex glass tube. 5 μl of δ-T3 with purity 99% (100 mg of δ-T3 dissolved in 1 ml of ethanol) was used as an internal standard solution and was spiked into the mixture. The tube was vortexed for 10 s and sonicated for 2 min. 4 ml of the butylated hydroxytoluene (BHT) solution (5 mg of BHT in 100 ml of heptane) was added into the tube to minimize the oxidation of target analytes. Liquid-liquid extraction was performed by vortexing vigorously for 10 s. After liquid-liquid extraction, the tubes were centrifuged at 4000 rpm for 5 min in Heraeus Multifuge 3-SR Centrifuge (Newport Pagnell, Buckinghamshire, UK). 3.9 ml of the organic layer was transferred into another Pyrex tube. […]\n(§1) 4.1.7 Determination of γ-Tocotrienol level by high performance liquid chromatography—A normal phase of HPLC method was performed as a modification of procedures known in the art. […] The absorbance of γ-T3 was monitored with a […] set at an excitation wavelength of 290 nm and emission wavelength of 360 nm."}, "[3]": {"assay": "Single acute toxicity test (MTD)", "type": "in vivo, C57BL/6 black mice", "settings": "single dose i.p., 30-day observation", "procedure": "4.1.5 Single Acute Toxicity Test—The maximum tolerated dose (MTD) was determined by increasing doses on different groups of mice until the highest dose without any mortality is found. Briefly, ninety C57BU6 black mice (ten for each group) received single dose i.p injection containing 1, 2, 4, 8, 12, 16, 20, 30 and 40 mg of γ-T3 in 100 μl injection volume."}, "[4]": {"assay": "γ-T3 level in tumors and organs by HPLC", "type": "in vivo, BALB/c athymic nude mice", "settings": "50 mg/kg/day γ-T3 for 10 days", "procedure": "Nude mice bearing similar tumor sizes of about 100 mm^3 (after 2 weeks inoculation) were selected and randomly divided into three groups (n=5 per group); control (DMSO as vehicle), γ-T3 (50 mg/kg/d) and combination treatment of γ-T3 and Docetaxel (50 mg of γ-T3/kg/d and 7.5 mg of Docetaxel/kg/wk). The mice were weighed as daily basic and the tumors were measured using a Digital Carbon Fiber Caliper (Fisher scientific, Pittsburgh, Pa.) at the same time. The tumor volume was calculated as 4/3*π*(mean diameter/2)^3. The mice were dosed 5 times a week for 2 weeks. After 10 days of treatment, the mice were euthanized by CO2 inhalation. Blood samples were collected through cardiac bleeding using 25-gauge needle. Blood samples were incubated at room temperature for 30 min, followed by centrifugation at 4400 rpm, 4° C. for 30 min. Serum, as the supernatant, was separated from plasma and stored at −80° C. Tumor, liver, kidney, spleen, lung and heart were harvested. Part of the tumors was fixed in 10% neutral buffered formalin solution. […]\nas §1"}},
  "data": [
    {"smiles": "CC(C)=CCC/C(C)=C/CC/C(C)=C/CCC1(C)CCc2cc(O)c(C)c(C)c2O1", "note": "(stereo not shown) [γ-T3, 7,8-dimethyltocotrienol]", "values": [
      {"measurement": "invasion capability compared to untreated control", "setting": "[1]", "result": "at least 2 -time lower"},
      {"measurement": "time the plasma level remains constant", "setting": "[2]", "result": "at least 72 hours"},
      {"measurement": "plasma γ-T3 level, starting value", "setting": "[2]; before the fall", "result": 260, "unit": "ppm"},
      {"measurement": "plasma γ-T3 level", "setting": "[2]; within 30 min after administration", "result": 50, "unit": "ppm"},
      {"measurement": "maximum tolerated dose (MTD)", "setting": "[3]", "result": 12, "unit": "mg"},
      {"measurement": "tumor γ-T3 amount relative to other internal organs", "setting": "[4]", "result": "at least two-fold"},
      {"measurement": "γ-T3 concentration within the tumors", "setting": "[4]", "result": "0.15±0.03 mg of γ-T3 per gram of wet weight"}
    ]}
  ]
}
